Test results reported in PubChem BioAssay AID1918946 (Molecular Pharmacology Branch, DTP, NCI, 2023).

Test system: 885512-296-R-J2-PDC complex spheroid viability
Experiment: Anticancer human tumor 885512-296-R-J2-PDC patient-derived breast carcinoma cell line growth inhibition
Settings: for IC50: curve of first compound; for viability, T/C: stronger effect = lower value
Outline: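 Drug combinations with the LSD1 inhibitor iadademstat tested on tumor cells co-cultured as spheroids with endothelial cells and mesenchymal stem cells. Concentrations descended in half-log increments from clinical Cmax or 10 microM.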

[1] = second compound 0.1 µM, first compound 0.00316 µM
[2] = second compound 0.1 µM, first compound 0.01 µM
[3] = second compound 0.1 µM, first compound 0.0316 µM
[4] = second compound 0.1 µM, first compound 0.1 µM
[5] = second compound 0.316 µM, first compound 0.00316 µM
[6] = second compound 0.316 µM, first compound 0.01 µM
[7] = second compound 0.316 µM, first compound 0.0316 µM
[8] = second compound 0.316 µM, first compound 0.1 µM
[9] = second compound 1 µM, first compound 0.00316 µM
[10] = second compound 1 µM, first compound 0.01 µM
[11] = second compound 1 µM, first compound 0.0316 µM
[12] = second compound 1 µM, first compound 0.1 µM
[13] = second compound 3.16 µM, first compound 0.00316 µM
[14] = second compound 3.16 µM, first compound 0.01 µM
[15] = second compound 3.16 µM, first compound 0.0316 µM
[16] = second compound 3.16 µM, first compound 0.1 µM
[17] = second compound 10 µM, first compound 0.00316 µM
[18] = second compound 10 µM, first compound 0.01 µM
[19] = second compound 10 µM, first compound 0.0316 µM
[20] = second compound 10 µM, first compound 0.1 µM
[21] = second compound 0.1 µM, first compound 0.316 µM
[22] = second compound 0.1 µM, first compound 1 µM
[23] = second compound 0.316 µM, first compound 0.316 µM
[24] = second compound 0.316 µM, first compound 1 µM
[25] = second compound 1 µM, first compound 0.316 µM
[26] = second compound 1 µM, first compound 1 µM
[27] = second compound 3.16 µM, first compound 0.316 µM
[28] = second compound 3.16 µM, first compound 1 µM
[29] = second compound 10 µM, first compound 0.316 µM
[30] = second compound 10 µM, first compound 1 µM
[31] = second compound 0.1 µM, first compound 0.00949 µM
[32] = second compound 0.1 µM, first compound 0.03 µM
[33] = second compound 0.1 µM, first compound 0.0949 µM
[34] = second compound 0.1 µM, first compound 0.3 µM
[35] = second compound 0.316 µM, first compound 0.00949 µM
[36] = second compound 0.316 µM, first compound 0.03 µM
[37] = second compound 0.316 µM, first compound 0.0949 µM
[38] = second compound 0.316 µM, first compound 0.3 µM
[39] = second compound 1 µM, first compound 0.00949 µM
[40] = second compound 1 µM, first compound 0.03 µM
[41] = second compound 1 µM, first compound 0.0949 µM
[42] = second compound 1 µM, first compound 0.3 µM
[43] = second compound 3.16 µM, first compound 0.00949 µM
[44] = second compound 3.16 µM, first compound 0.03 µM
[45] = second compound 3.16 µM, first compound 0.0949 µM
[46] = second compound 3.16 µM, first compound 0.3 µM
[47] = second compound 10 µM, first compound 0.00949 µM
[48] = second compound 10 µM, first compound 0.03 µM
[49] = second compound 10 µM, first compound 0.0949 µM
[50] = second compound 10 µM, first compound 0.3 µM
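Also: spheroids exposed to agents for 7 days before viability read.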

Structure (SMILES): CC(C)CC(NC(=O)CNC(=O)c1cc(Cl)ccc1Cl)B1OC(=O)CC(CC(=O)O)(C(=O)O)O1 (stereo not given) + NC1CCC(NC2CC2c2ccccc2)CC1
- IC50 (second compound 0.1 µM): 6.41 nM
- IC50 (second compound 0.316 µM): 6.9 nM
- IC50 (second compound 1 µM): 6.61 nM
- IC50 (second compound 3.16 µM): 6.51 nM
- IC50 (second compound 10 µM): 5.07 nM
- viability, T/C (second compound 0.1 µM, first compound 0.000316 µM): 148%
- viability, T/C (second compound 0.1 µM, first compound 0.001 µM): 136%
- viability, T/C [1]: 102%
- viability, T/C [2]: 16.9%
- viability, T/C [3]: 4.82%
- viability, T/C [4]: 8.2%
- viability, T/C (second compound 0.316 µM, first compound 0.000316 µM): 125%
- viability, T/C (second compound 0.316 µM, first compound 0.001 µM): 126%
- viability, T/C [5]: 106%
- viability, T/C [6]: 23.3%
- viability, T/C [7]: 3.92%
- viability, T/C [8]: 3.86%
- viability, T/C (second compound 1 µM, first compound 0.000316 µM): 121%
- viability, T/C (second compound 1 µM, first compound 0.001 µM): 131%
- viability, T/C [9]: 103%
- viability, T/C [10]: 20.4%
- viability, T/C [11]: 4.02%
- viability, T/C [12]: 6.64%
- viability, T/C (second compound 3.16 µM, first compound 0.000316 µM): 124%
- viability, T/C (second compound 3.16 µM, first compound 0.001 µM): 117%
- viability, T/C [13]: 110%
- viability, T/C [14]: 14.4%
- viability, T/C [15]: 5.03%
- viability, T/C [16]: 1.02%
- viability, T/C (second compound 10 µM, first compound 0.000316 µM): 107%
- viability, T/C (second compound 10 µM, first compound 0.001 µM): 107%
- viability, T/C [17]: 76.3%
- viability, T/C [18]: 12%
- viability, T/C [19]: 2.47%
- viability, T/C [20]: 0.56%

Structure (SMILES): CC1COCCN1c1cc(-c2ccnn2C)c2ccnc(-c3ccn[nH]3)c2n1 (stereo not given) + NC1CC1c1ccc(-c2cccc(O)c2)cc1
- IC50 (second compound 0.1 µM): < 3.16 nM
- IC50 (second compound 0.316 µM): < 3.16 nM
- IC50 (second compound 1 µM): < 3.16 nM
- IC50 (second compound 3.16 µM): < 3.16 nM
- IC50 (second compound 10 µM): < 3.16 nM
- viability, T/C [1]: 3.29%
- viability, T/C [2]: 2.63%
- viability, T/C [3]: 2.05%
- viability, T/C [4]: 1.94%
- viability, T/C [21]: 2.98%
- viability, T/C [22]: 3.66%
- viability, T/C [5]: 4.19%
- viability, T/C [6]: 3.06%
- viability, T/C [7]: 2.44%
- viability, T/C [8]: 2%
- viability, T/C [23]: 3.18%
- viability, T/C [24]: 4.22%
- viability, T/C [9]: 3.96%
- viability, T/C [10]: 3.23%
- viability, T/C [11]: 2.3%
- viability, T/C [12]: 2.21%
- viability, T/C [25]: 3.06%
- viability, T/C [26]: 4.25%
- viability, T/C [13]: 2.66%
- viability, T/C [14]: 2.58%
- viability, T/C [15]: 1.89%
- viability, T/C [16]: 2.1%
- viability, T/C [27]: 2.93%
- viability, T/C [28]: 4.29%
- viability, T/C [17]: 3.44%
- viability, T/C [18]: 2.73%
- viability, T/C [19]: 1.93%
- viability, T/C [20]: 2.12%
- viability, T/C [29]: 2.49%
- viability, T/C [30]: 4.01%

Structure (SMILES): O=C(C=Cc1cccc(S(=O)(=O)Nc2ccccc2)c1)NO + NC1CC1c1ccc(-c2cccc(O)c2)cc1
- IC50 (second compound 0.1 µM): > 3000 nM
- IC50 (second compound 0.316 µM): 41.9 nM
- IC50 (second compound 1 µM): 71.5 nM
- IC50 (second compound 3.16 µM): 39.1 nM
- IC50 (second compound 10 µM): 19.5 nM
- viability, T/C [31]: 104%
- viability, T/C [32]: 66.5%
- viability, T/C [33]: 26.4%
- viability, T/C [34]: 15.9%
- viability, T/C (second compound 0.1 µM, first compound 0.949 µM): 2.01%
- viability, T/C (second compound 0.1 µM, first compound 3 µM): 136%
- viability, T/C [35]: 106%
- viability, T/C [36]: 61.2%
- viability, T/C [37]: 23.3%
- viability, T/C [38]: 12%
- viability, T/C (second compound 0.316 µM, first compound 0.949 µM): 2.58%
- viability, T/C (second compound 0.316 µM, first compound 3 µM): 116%
- viability, T/C [39]: 96.3%
- viability, T/C [40]: 73.6%
- viability, T/C [41]: 26.6%
- viability, T/C [42]: 13.9%
- viability, T/C (second compound 1 µM, first compound 0.949 µM): 1.94%
- viability, T/C (second compound 1 µM, first compound 3 µM): 127%
- viability, T/C [43]: 92.1%
- viability, T/C [44]: 53.6%
- viability, T/C [45]: 26.4%
- viability, T/C [46]: 14.4%
- viability, T/C (second compound 3.16 µM, first compound 0.949 µM): 1.95%
- viability, T/C (second compound 3.16 µM, first compound 3 µM): 109%
- viability, T/C [47]: 62.8%
- viability, T/C [48]: 42.4%
- viability, T/C [49]: 16.9%
- viability, T/C [50]: 8.77%
- viability, T/C (second compound 10 µM, first compound 0.949 µM): 0.61%
- viability, T/C (second compound 10 µM, first compound 3 µM): 82.6%

Structure (SMILES): CC1(C)CCC(CN2CCN(c3ccc(C(=O)NS(=O)(=O)c4ccc(NCC5CCOCC5)c([N+](=O)[O-])c4)c(Oc4cnc5[nH]ccc5c4)c3)CC2)=C(c2ccc(Cl)cc2)C1 + NC1CCC(NC2CC2c2ccccc2)CC1
- IC50 (second compound 0.1 µM): 4990 nM
- IC50 (second compound 0.316 µM): 4830 nM
- IC50 (second compound 1 µM): 4900 nM
- IC50 (second compound 3.16 µM): 4940 nM
- IC50 (second compound 10 µM): 3840 nM
- viability, T/C [3]: 106%
- viability, T/C [4]: 109%
- viability, T/C [21]: 115%
- viability, T/C [22]: 98.9%
- viability, T/C (second compound 0.1 µM, first compound 3.16 µM): 72.8%
- viability, T/C (second compound 0.1 µM, first compound 10 µM): 15.8%
- viability, T/C [7]: 112%
- viability, T/C [8]: 116%
- viability, T/C [23]: 120%
- viability, T/C [24]: 90.1%
- viability, T/C (second compound 0.316 µM, first compound 3.16 µM): 72.2%
- viability, T/C (second compound 0.316 µM, first compound 10 µM): 16%
- viability, T/C [11]: 110%
- viability, T/C [12]: 115%
- viability, T/C [25]: 116%
- viability, T/C [26]: 93.4%
- viability, T/C (second compound 1 µM, first compound 3.16 µM): 73.1%
- viability, T/C (second compound 1 µM, first compound 10 µM): 14.7%
- viability, T/C [15]: 111%
- viability, T/C [16]: 107%
- viability, T/C [27]: 114%
- viability, T/C [28]: 98.7%
- viability, T/C (second compound 3.16 µM, first compound 3.16 µM): 71%
- viability, T/C (second compound 3.16 µM, first compound 10 µM): 17.4%
- viability, T/C [19]: 84.3%
- viability, T/C [20]: 82.8%
- viability, T/C [29]: 77.9%
- viability, T/C [30]: 87.4%
- viability, T/C (second compound 10 µM, first compound 3.16 µM): 56.2%
- viability, T/C (second compound 10 µM, first compound 10 µM): 19.9%

Structure (SMILES): Nc1ccn(C2OC(CO)C(O)C2(F)F)c(=O)n1 (stereo not given) + NC1CC1c1ccc(-c2cccc(O)c2)cc1
- IC50 (second compound 0.1 µM): < 0.949 nM
- IC50 (second compound 0.316 µM): < 0.949 nM
- IC50 (second compound 1 µM): < 0.949 nM
- IC50 (second compound 3.16 µM): < 0.949 nM
- IC50 (second compound 10 µM): < 0.949 nM
- viability, T/C (second compound 0.1 µM, first compound 0.000949 µM): 13.8%
- viability, T/C (second compound 0.1 µM, first compound 0.003 µM): 2.18%
- viability, T/C [31]: 2%
- viability, T/C [32]: 2.39%
- viability, T/C [33]: 2.84%
- viability, T/C [34]: 2.16%
- viability, T/C (second compound 0.316 µM, first compound 0.000949 µM): 17.7%
- viability, T/C (second compound 0.316 µM, first compound 0.003 µM): 2.09%
- viability, T/C [35]: 1.82%
- viability, T/C [36]: 2.16%
- viability, T/C [37]: 2.14%
- viability, T/C [38]: 2.23%
- viability, T/C (second compound 1 µM, first compound 0.000949 µM): 12.1%
- viability, T/C (second compound 1 µM, first compound 0.003 µM): 2.01%
- viability, T/C [39]: 2.01%
- viability, T/C [40]: 2.18%
- viability, T/C [41]: 2.05%
- viability, T/C [42]: 2.5%
- viability, T/C (second compound 3.16 µM, first compound 0.000949 µM): 15.3%
- viability, T/C (second compound 3.16 µM, first compound 0.003 µM): 2.08%
- viability, T/C [43]: 2.46%
- viability, T/C [44]: 1.83%
- viability, T/C [45]: 2.59%
- viability, T/C [46]: 2.46%
- viability, T/C (second compound 10 µM, first compound 0.000949 µM): 15.8%
- viability, T/C (second compound 10 µM, first compound 0.003 µM): 2.15%
- viability, T/C [47]: 2.26%
- viability, T/C [48]: 2.65%
- viability, T/C [49]: 2.46%
- viability, T/C [50]: 3.06%
